How the values were obtained:
[1] = target: T1, Recombinant purified human BTK (Homo sapiens, UniProt Q06187); test: BTK kinase inhibitory activity, ADP-Glo kinase assay (Promega V9071); format: biochemical; details: ATP 10 uM, 8 ng BTK per reaction, 1 hour 30 °C, chemiluminescence
T1 construct: purchased Promega V9071
In short: (§1)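 IC50 values come from ADP-Glo luminescence after 1 h kinase reactions at 30 °C in 1% DMSO on 0.2 µg/µL Poly(Glu4,Tyr1) substrate. ATP was 10 µM for BTK (8 ng, buffer containing MnCl2) and 5 µM for JAK3 (4 ng), in Tris-Cl pH 7.5/MgCl2/BSA/DTT.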

[2] = target: T2, Recombinant purified human JAK3 (Homo sapiens, UniProt P52333); test: JAK3 kinase inhibitory activity, ADP-Glo kinase assay (Promega V9441); format: biochemical; details: ATP 5 uM, 4 ng JAK3 per reaction, 1 hour 30 °C, chemiluminescence
T2 construct: purchased Promega V9441
T2 sequence (P52333 1-1124): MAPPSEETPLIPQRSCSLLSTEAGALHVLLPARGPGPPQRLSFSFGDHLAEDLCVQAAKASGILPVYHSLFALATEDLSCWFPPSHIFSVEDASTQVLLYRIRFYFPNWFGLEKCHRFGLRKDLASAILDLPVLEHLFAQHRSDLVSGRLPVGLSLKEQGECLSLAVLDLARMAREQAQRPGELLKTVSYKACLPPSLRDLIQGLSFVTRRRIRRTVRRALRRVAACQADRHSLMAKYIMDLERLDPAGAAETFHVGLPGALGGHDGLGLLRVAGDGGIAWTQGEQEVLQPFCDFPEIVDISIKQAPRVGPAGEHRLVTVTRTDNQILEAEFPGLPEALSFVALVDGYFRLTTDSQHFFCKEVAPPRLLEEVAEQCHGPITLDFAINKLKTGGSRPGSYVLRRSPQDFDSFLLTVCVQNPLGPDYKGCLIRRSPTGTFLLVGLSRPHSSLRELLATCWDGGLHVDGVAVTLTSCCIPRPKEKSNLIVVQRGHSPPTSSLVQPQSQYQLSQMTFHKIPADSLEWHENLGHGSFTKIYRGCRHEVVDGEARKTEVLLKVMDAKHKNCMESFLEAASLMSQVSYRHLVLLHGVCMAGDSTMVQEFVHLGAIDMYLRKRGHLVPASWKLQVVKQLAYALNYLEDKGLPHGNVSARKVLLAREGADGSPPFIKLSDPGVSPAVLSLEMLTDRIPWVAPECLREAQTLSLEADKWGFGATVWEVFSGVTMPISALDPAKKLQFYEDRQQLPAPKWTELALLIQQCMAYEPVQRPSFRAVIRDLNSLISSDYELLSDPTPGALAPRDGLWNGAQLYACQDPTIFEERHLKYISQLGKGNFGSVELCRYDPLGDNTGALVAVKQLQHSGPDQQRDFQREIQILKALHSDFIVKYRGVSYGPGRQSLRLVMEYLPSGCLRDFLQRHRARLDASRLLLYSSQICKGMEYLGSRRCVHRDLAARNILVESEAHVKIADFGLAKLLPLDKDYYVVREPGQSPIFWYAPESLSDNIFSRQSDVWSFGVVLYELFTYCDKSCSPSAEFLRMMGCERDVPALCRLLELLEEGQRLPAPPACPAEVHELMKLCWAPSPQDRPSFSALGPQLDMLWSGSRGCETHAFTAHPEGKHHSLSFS
In short: as §1

T1 sequence (Q06187 whole entry): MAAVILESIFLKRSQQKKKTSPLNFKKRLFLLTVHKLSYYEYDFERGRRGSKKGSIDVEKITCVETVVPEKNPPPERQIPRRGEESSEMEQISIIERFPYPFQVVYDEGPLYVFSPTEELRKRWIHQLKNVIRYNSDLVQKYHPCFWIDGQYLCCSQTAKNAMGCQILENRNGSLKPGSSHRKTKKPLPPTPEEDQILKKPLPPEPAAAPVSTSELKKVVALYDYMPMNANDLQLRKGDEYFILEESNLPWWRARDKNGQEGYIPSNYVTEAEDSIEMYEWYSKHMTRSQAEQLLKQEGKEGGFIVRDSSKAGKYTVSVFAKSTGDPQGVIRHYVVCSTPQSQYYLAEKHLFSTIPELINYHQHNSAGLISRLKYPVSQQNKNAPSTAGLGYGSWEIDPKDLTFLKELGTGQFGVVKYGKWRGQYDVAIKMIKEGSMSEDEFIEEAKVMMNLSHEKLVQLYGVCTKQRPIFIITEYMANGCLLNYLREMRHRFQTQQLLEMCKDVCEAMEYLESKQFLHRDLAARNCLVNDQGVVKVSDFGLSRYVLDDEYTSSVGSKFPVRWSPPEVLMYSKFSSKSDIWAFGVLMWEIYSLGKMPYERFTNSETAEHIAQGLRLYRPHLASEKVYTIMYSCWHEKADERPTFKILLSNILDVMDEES

Structure (SMILES) | IC50 [1] | IC50 [2]
C=CC(=O)N1CCC[C@@H](Sc2nc(Nc3cnn(CC(F)(F)F)c3)nc3[nH]nc(Cl)c23)C1 [Example 114, (R)-1-(3-((3-chloro-6-((1-(2,2,2-trifluoroethyl)-1H-pyrazol-4-yl)amino)-1H-pyrazolo [3,4-d]pyrimidin-4-yl)thio)piperidin-1-yl)prop-2-en-1-one] | 2.3 nM | 0.9 nM
C=CC(=O)N1CCC[C@@H](Sc2nc(Nc3cnn(CCC)c3)nc3[nH]nc(Cl)c23)C1 [Example 115, (R)-1-(3-((3-chloro-6-((1-propyl-1H-pyrazol-4-yl)amino)-1H-pyrazolo[3,4-d]pyrimidin-4-yl)thio)piperidin-1-yl)prop-2-en-1-one] | 2 nM | 1.7 nM
C=CC(=O)N1CCC[C@@H](N(C)c2nc(Nc3cnn(CC)c3)nc3[nH]nc(Cl)c23)C1 [Example 118, (R)-1-(3-((3-chloro-6-((1-ethyl-1H-pyrazol-4-yl)amino)-1H-pyrazolo[3,4-d]pyrimidin-4-yl)(methyl)amino)piperidin-1-yl)prop-2-en-1-one] | 1.3 nM | 3.2 nM
C=CC(=O)N1CC[C@@H](C)[C@@H](Nc2nc(Nc3cnn(CC(F)(F)F)c3)nc3[nH]nc(Cl)c23)C1 [Example 120, 1-((3R,4R)-3-((3-chloro-6-((1-(2,2,2-trifluoroethyl)-1H-pyrazol-4-yl)amino)-1H-pyrazolo[3,4-d]pyrimidin-4-yl)amino)-4-methylpiperidin-1-yl)prop-2-en-1-one] | 7.5 nM | 7.8 nM
C=CC(=O)N1CC[C@@H](C)[C@@H](Nc2nc(Nc3cnn(CCN(CC)CC)c3)nc3[nH]nc(Cl)c23)C1 [Example 122, 1-((3R,4R)-3-((3-chloro-6-((1-(2-(diethylamino)ethyl)-1H-pyrazol-4-yl)amino)-1H-pyrazolo[3,4-d]pyrimidin-4-yl)amino)-4-methylpiperidin-1-yl)prop-2-en-1-one] | 6 nM | 8.1 nM
C=CC(=O)N1CC[C@@H](C)[C@@H](Nc2nc(Nc3cnn(CCN4CCOCC4)c3)nc3[nH]nc(Cl)c23)C1 [Example 123, 1-((3R,4R)-3-((3-chloro-6-((1-(2-morpholinoethyl)-1H-pyrazol-4-yl)amino)-1H-pyrazolo[3,4-d]pyrimidin-4-yl)amino)-4-methylpiperidin-1-yl)prop-2-en-1-one] | 5.8 nM | 7.9 nM
C=CC(=O)N1CC[C@@H](C)[C@@H](Nc2nc(Nc3cnn(CC(C)C)c3)nc3[nH]nc(Cl)c23)C1 [Example 124, 1-((3R,4R)-3-((3-chloro-6-((1-isobutyl-1H-pyrazol-4-yl)amino)-1H-pyrazolo[3,4-d]pyrimidin-4-yl)amino)-4-methylpiperidin-1-yl)prop-2-en-1-one] | 3.5 nM | 8.4 nM
C=CC(=O)N1CC[C@@H](C)[C@@H](Nc2nc(Nc3cnn(Cc4cccc(OC)c4)c3)nc3[nH]nc(Cl)c23)C1 [Example 125, 1-((3R,4R)-3-((3-chloro-6-((1-(3-methoaybenzyl)-1H-pyrazol-4-yl)amino)-1H-pyrazolo[3,4-d]pyrimidin-4-yl)amino)-4-methylpiperidin-1-yl)prop-2-en-1-one] | 8.2 nM | 20.4 nM
C=CC(=O)N1CC[C@@H](C)[C@@H](Nc2nc(Nc3cnn(C(F)F)c3)nc3[nH]nc(Cl)c23)C1 [Example 127, 1-((3R,4R)-3-((3-chloro-6-((1-(difluoromethyl)-1H-pyrazol-4-yl)amino)-1H-pyrazolo [3,4-d]pyrimidin-4-yl)amino)-4-methylpiperidin-1-yl)prop-2-en-1-one] | 1.5 nM | 43.1 nM
C=CC(=O)N1CCC[C@@H](N(C)c2nc(Nc3cnn(CC)c3)nc3[nH]nc(SC)c23)C1 [Example 131, (R)-1-(3-((6-((1-ethyl-1H-pyrazol-4-yl)amino)-3-(methylthio)-1H-pyrazolo [3,4-d]pyrimidin-4-yl)(methyl)amino)piperidin-1-yl)prop-2-en-1-one] | 1.6 nM | 24.5 nM
C=CC(=O)N1CC[C@@H](C)[C@@H](Nc2nc(Nc3cnn(CC)c3)nc3[nH]nc(SC)c23)C1 [Example 132, 1-((3R,4R)-3-((6-((1-ethyl-1H-pyrazol-4-yl)amino)-3-(methylthio)-1H-pyrazolo[3,4-d]pyrimidin-4-yl)amino)-4-methylpiperidin-1-yl)prop-2-en-1-one] | 2.1 nM | 25.5 nM
C=CC(=O)N1CC[C@@H](C)[C@@H](Nc2nc(Nc3cnn(CC(F)F)c3)nc3[nH]nc(SC)c23)C1 [Example 133, 1-((3R,4R)-3-((6-((1-(2,2-difluoroethyl)-1H-pyrazol-4-yl)amino)-3-(methylthio)-1H-pyrazolo [3,4-d]pyrimidin-4-yl)amino)-4-methylpiperidin-1-yl)prop-2-en-1-one] | 1.6 nM | 16 nM
C=CC(=O)N1CC[C@@H](C)[C@@H](Nc2nc(Nc3cnn(CC#N)c3)nc3[nH]nc(SC)c23)C1 [Example 134, 2-(4-((4-(((3R,4R)-1-acryloyl-4-methylpiperidin-3-yl)amino)-3-(methylthio)-1H-pyrazolo[3,4-d]pyrimidin-6-yl)amino)-1H-pyrazol-1-yl)acetonitrile] | 1.8 nM | 17.7 nM
C=CC(=O)N1CC[C@@H](C)[C@@H](Nc2nc(Nc3cnn(C4CC4)c3)nc3[nH]nc(SC)c23)C1 [Example 135, 1-((3R,4R)-3-((6-((1-cyclopropyl-1H-pyrazol-4-yl)amino)-3-(methylthio)-1H-pyrazolo[3,4-d]pyrimidin-4-yl)amino)-4-methylpiperidin-1-yl)prop-2-en-1-one] | 2.3 nM | 42.3 nM
CCn1cc(Nc2nc(N[C@H]3CN(C(=O)CC#N)CC[C@H]3F)c3c(Cl)n[nH]c3n2)cn1 [Example 138] | 92.7 nM | > 80 nM

Other lines, results leading:

IC50 [1] | IC50 [2] | Structure (SMILES)
25.3 nM | 19.5 nM | C=CC(=O)N1CCC[C@@H](Sc2nc(Nc3cnoc3)nc3[nH]nc(Cl)c23)C1 [Example 116, (R)-1-(3-((3-chloro-6-(isoxazol-4-ylamino)-1H-pyrazolo [3,4-d]pyrimidin-4-yl)thio)piperidin-1-yl)prop-2-en-1-one]
81.2 nM | > 400 nM | C=CC(=O)N1CCC[C@@H](Nc2nc(Nc3cnoc3C)nc3[nH]nc(Cl)c23)C1 [Example 117]
11.1 nM | 32.5 nM | C=CC(=O)N1CCC[C@@H](N(C)c2nc(Nc3cnoc3)nc3[nH]nc(Cl)c23)C1 [Example 119]
4.9 nM | 18 nM | C=CC(=O)N1CC[C@@H](C)[C@@H](Nc2nc(Nc3cnn(CCC)c3)nc3[nH]nc(Cl)c23)C1 [Example 121, 1-((3R,4R)-3-((3-chloro-6-((1-propyl-1H-pyrazol-4-yl)amino)-1H-pyrazolo[3,4-d]pyrimidin-4-yl)amino)-4-methylpiperidin-1-yl)prop-2-en-1-one]
1.2 nM | 2.9 nM | C=CC(=O)N1CC[C@@H](C)[C@@H](Nc2nc(Nc3cnn(CC#N)c3)nc3[nH]nc(Cl)c23)C1 [Example 126, 2-(4-((4-(((3R,4R)-1-acryloyl-4-methylpiperidin-3-yl)amino)-3-chloro-1H-pyrazolo[3,4-d]pyrimidin-6-yl)amino)-1H-pyrazol-1-yl)acetonitrile]
5.8 nM | 14.6 nM | C=CC(=O)N1CC[C@@H](C)[C@@H](Nc2nc(Nc3cnn(C)c3)nc3[nH]nc(Cl)c23)C1 [Example 128]
2.3 nM | 42.3 nM | C=CC(=O)N1CCC[C@@H](Nc2nc(Nc3cnn(C4CC4)c3)nc3[nH]nc(SC)c23)C1 [Example 129]
1.1 nM | 0.1 nM | C=CC(=O)N1CCC[C@@H](Nc2nc(Nc3cc(C)ns3)nc3[nH]cc(Cl)c23)C1 [Example 136, (R)-1-(3-((5-chloro-2-((3-methylisothiazol-5-yl)amino)-7H-pyrrolo[2,3-d]pyrimidin-4-yl)amino)piperidin-1-yl)prop-2-en-1-one]
19.6 nM | 2.6 nM | C=CC(=O)N1CCC[C@@H](Nc2nc(Nc3cccnc3)nc3[nH]cc(Cl)c23)C1 [Example 137, (R)-1-(3-((5-chloro-2-(pyridin-3-ylamino)-7H-pyrrolo[2,3-d]pyrimidin-4-yl)amino)piperidin-1-yl)prop-2-en-1-one]
